The source of these data is US20120282245A1, “BIOMARKERS AND ASSAYS FOR THE TREATMENT OF CANCER” (BIOGEN IDEC MA INC., priority 2006, published 2012).

The test system of experiment [1] is TRAF3. Put plainly: Western blot for TRAF3 protein level. The class given is cell-based. The following applies: DLD-1 cells; BS-1 100 ng/ml or TNFα 20 ng/ml. As to the method:
(§1) DLD-1 and WiDr adenocarcinoma cell lines were obtained from ATCC (Manassas, Va.), and cultured in MEM Earle's medium supplemented with 10% FBS. Antibodies against LTβR (N-15), TRAF3 (H-20 and H-122), TRAF2 (H-249), and NFκB2 (C-5) were obtained from Santa Cruz Biotechnology (Santa Cruz, Calif.). Antibodies against phosphorylated IκBα (5A5), phosphorylated RelA, and NIK were purchased from Cell Signaling Technologies (Beverly, Mass.).
Cells were treated for 10 minutes at 37° C. with media or activating antibody (BS-1) and washed twice in ice-cold PBS with protease and phosphatase inhibitors, followed by lysis by scraping in ice-cold lysis buffer [50 mM PIPES pH 6.8, 100 mM KCl, 2 mM MgCl2, 1 mM EGTA, 0.2% NP-40, and 10% Glycerol, supplemented with Complete EDTA-free protease inhibitor cocktail (Roche, Indianapolis, Ind.), 10 mM Sodium Fluoride, and 100 μM Sodium Orthovanadate]. Lysates were centrifuged at 14000 RPM for 30 minutes at 4° C., and supernatants were pre-cleared with normal goat IgG-agarose beads (Sigma, St. Louis, Mo.) by incubating on a rotator at 4° C. […] Blots were developed using SuperSignal chemiluminescent detection substrates (Pierce), and detected on Biomax X-ray films (Kodak, Rochester, N.Y.) and/or directly on a Kodak ImageStation 2000R luminescence detector. […]

Experiment [2] concerns canonical NFκB1 pathway. Put plainly: Western blot for phosphorylated IκBα and RelA (canonical NFκB1 activation). The class given is cell-based. To be noted: DLD-1 and WiDr cells, TNFα 20 ng/ml. As to the method: as §1
LTβR was activated using 100 ng/ml of a humanized bi-specific, activating antibody (BS-1) developed at Biogen Idec, Inc. TNFα was used at a concentration of 20 ng/ml. During stimulation, cells were kept in a 37° C. incubator for indicated times.
Cells were treated for 10 minutes at 37° C. with media or activating antibody (BS-1) and washed twice in ice-cold PBS with protease and phosphatase inhibitors, followed by lysis by scraping in ice-cold lysis buffer [50 mM PIPES pH 6.8, 100 mM KCl, 2 mM MgCl2, 1 mM EGTA, 0.2% NP-40, and 10% Glycerol, supplemented with Complete EDTA-free protease inhibitor cocktail (Roche, Indianapolis, Ind.), 10 mM Sodium Fluoride, and 100 μM Sodium Orthovanadate]. […] Blots were developed using SuperSignal chemiluminescent detection substrates (Pierce), and detected on Biomax X-ray films (Kodak, Rochester, N.Y.) and/or directly on a Kodak ImageStation 2000R luminescence detector.
(In general: A western blot detects proteins with antibodies after separation by electrophoresis.)

Regarding TNFα, the “TRAF3 level after stimulation” value in experiment [1] is “increases the levels of TRAF3”. The “activation of NFκB1” value in experiment [2] is listed as “identical in both cell-lines”.
